Measurements: patent publication US20130067616A1, “Plant Defensive Peptides” (priority 2010, published 2013)
Ends that are not written are not given here.

Key:
Rhizoctonia solani = assay: Inhibitory concentrations of antimicrobial peptides and antibiotics against Rhizoctonia solani in vitro; format: cell-based; set-up: MIC, minimum concentration that completely inhibits growth of fungal cells: unit: μM; settings: for IC50: ± std, read-out: IC50, concentration that inhibits 50% growth of fungal cultures vs control
[1] = system: phytopathogenic bacteria and fungi; assay: Antibacterial and antifungal resistance of Arabidopsis expressing antimicrobial peptides; format: in vivo; settings: carbonic anhydrase promoter, rice endochitinase signal peptide
From the text: Including the acidic peptide is thus a preferred aspect of practicing the invention, although it may not be required. Tagging the βPTH precursor with EGFP greatly impaired antimicrobial activity in the mature peptide, even though EGFP was fused to the C-terminus of the acidic protein, the portion that was post-translationally cleaved.

fungal cultures = settings: literature values (Thevissen et al. 1996; Oard et al. 2004); read-out: IC50, concentration of a peptide that inhibits 50% growth of fungal cultures relative to control; cited from earlier work
[2] = system: Neurospora crassa and Saccharomyces cerevisiae; set-up: dose or concentration left out as unconfirmed; settings: concentration as low as; cited from earlier work

In the case of `CC[C@H](C)[C@H](NC(=O)CN)C(=O)NCC(=O)N[C@@H](C)C(=O)N[C@H](C(=O)N[C@@H](CC(C)C)C(=O)N[C@@H](CCCCN)C(=O)N[C@H](C(=O)N[C@@H](CC(C)C)C(=O)N[C@H](C(=O)N[C@H](C(=O)NCC(=O)N[C@@H](CC(C)C)C(=O)N1CCC[C@H]1C(=O)N[C@@H](C)C(=O)N[C@@H](CC(C)C)C(=O)N[C@H](C(=O)N[C@@H](CO)C(=O)N[C@@H](Cc1c[nH]c2ccccc12)C(=O)N[C@H](C(=O)N[C@@H](CCCCN)C(=O)N[C@@H](CCCNC(=N)N)C(=O)N[C@@H](CCCCN)C(=O)N[C@@H](CCCNC(=N)N)C(=O)N[C@@H](CCC(N)=O)C(=O)N[C@@H](CCC(N)=O)C(N)=O)[C@@H](C)CC)[C@@H](C)CC)[C@@H](C)O)[C@@H](C)O)C(C)C)C(C)C` [Melittin], the “MIC, minimum concentration that completely inhibits growth of fungal cells” value (Rhizoctonia solani) is reported as 13.1 µmol and the IC50 (Rhizoctonia solani) is reported as 7.1 ± 0.6 µM.
With `C[C@@H]([C@H](N)C(=O)N[C@H](C(=O)O)[C@H]1O[C@@H](n2ccc(=O)[nH]c2=O)[C@H](O)[C@@H]1O)[C@H](O)c1ccc(O)cn1` [Nikkomycin Z] the “MIC, minimum concentration that completely inhibits growth of fungal cells” value (Rhizoctonia solani) was 4.5 µmol and the IC50 (Rhizoctonia solani) was 0.86 ± 0.1 µM.
With `C[C@@H]1[C@H](O)[C@@H](C)/C=C/C=C/CC/C=C/C=C/C=C/C=C/C(O[C@H]2O[C@H](C)[C@@H](O)[C@H](N)[C@@H]2O)CC2O[C@](O)(CC(O)C(O)CCC(O)CC(O)CC(O)CC(=O)O[C@H]1C)CC(O)C2C(=O)O` (some centres unmarked) [Nystatin] the “MIC, minimum concentration that completely inhibits growth of fungal cells” value (Rhizoctonia solani) was 5.2 µmol and the IC50 (Rhizoctonia solani) was 1.1 ± 0.3 µM.
For “Cecropin B (KWKVFKKIEKMGRNIRNGIVKAGPAIAVLGEAKAL; ends and bridges not checked; UniProt P01508 27-61, looked up) [natural 35-residue peptide from the Cecropia moth]”, the “MIC, minimum concentration that completely inhibits growth of fungal cells” value (Rhizoctonia solani) was 9.8 µmol, the IC50 (Rhizoctonia solani) was 4.6 ± 0.3 µM and the “Antimicrobial resistance in vivo of Arabidopsis expressing the peptide” value [1] was “only antibacterial activity, not antifungal activity”.
With Magainin II the “MIC, minimum concentration that completely inhibits growth of fungal cells” value (Rhizoctonia solani) was 30.2 µmol and the IC50 (Rhizoctonia solani) was 15.7 ± 0.9 µM.
In the case of “α-Hordothionin (KSCCRSTLGRNCYNLCRVRGAQKLCAGVCRCKLTSSGKCPTGFPK) [barley seed-specific thionin, GenBank X05901]”, the IC50 (fungal cultures) is listed as 1 µM.
For α-purothionin, the “Inhibition of fungal growth” value [2] is given as “up to 50%”.
In the case of β-Purothionin [βPTH], the IC50 (fungal cultures) is listed as 1.1 µM, the “MIC, minimum concentration that completely inhibits growth of fungal cells” value (Rhizoctonia solani) is listed as 5.02 µmol and the IC50 (Rhizoctonia solani) is listed as 1.14 ± 0.4 µM. For the same molecule, the “Antimicrobial resistance in vivo of Arabidopsis expressing the peptide” value [1] was “the greatest antibacterial and antifungal resistance”.
